Measurements: patent publication US20220227745A1, “Compounds For Modulating FXR” (NANJING RUIJIE PHARMA TECH CO., LTD., priority 2019, published 2022)

Target: T1, FXR LBD, GST (Homo sapiens, UniProt Q96RI1)
T1 construct: FXR LBD, GST; purchased Invitrogen PV4834
T1 sequence (Q96RI1 262-486 limits assumed): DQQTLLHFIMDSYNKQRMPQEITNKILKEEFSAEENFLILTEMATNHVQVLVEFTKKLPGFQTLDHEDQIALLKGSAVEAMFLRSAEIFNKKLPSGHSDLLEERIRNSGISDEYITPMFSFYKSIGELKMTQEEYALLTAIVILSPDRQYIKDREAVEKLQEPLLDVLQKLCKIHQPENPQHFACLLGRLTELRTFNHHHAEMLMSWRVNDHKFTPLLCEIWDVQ
Assay: FXR Binding Assay (TR-FRET, Fluorescein-SRC2-2 coactivator peptide)
Conditions: for Emax / Pct Effect (Emax %): % Activity relative to positive control; for Emax: read-out: Pct Effect (Emax %); for EC50: TR-FRET FXR LBD coactivator recruitment
Method: The interaction between the present compounds and FXR are evaluated by Time-Resolved Fluorescence Resonance Energy Transfer (TR-FRET) competition assay. FRET describes a radiation-free energy transfer between two chromophores: a donor fluorophore in its excited state can transfer energy to an acceptor fluorophore in close proximity (typically <10 nm). In contrast to standard FRET, TR-FRET unites time-resolved fluorescence (TRF) and the FRET principle, TRF use a long-lifetime lanthanide chelate as the donor species, while lanthanide chelates are unique in that their excited-state lifetime can be on the order of a millisecond or longer. Suitable neighbors for FRET are known in the art and can be obtained.
The assay was performed in following steps: first, prepared a) 1 mM compounds (100×) in DMSO; b) reaction buffer containing 1× buffer G with 10 mM DTT; c) 4×FXR LBD (20 nM) in 1× chilled buffer G. Second, performed 3-fold serial dilution of 1 mM test compounds using DMSO from 1 mM, 10 doses in a 96-well plate (249944, Nunc). Then, used complete buffer G to dilute each 100× compounds serial dilution to 2×. Third, added 10 μl 2× compound serial dilution into 384-well plate (3677, Corning). Then, added 5 μl FXR LBD into the assay plate. Prepared a solution containing 2 μM fluorescein-SRC2-2 (4×) and 20 nM Tb anti-GST antibody (4×) in buffer G at room temperature and started the reaction by adding 5 μl the above solution into each well of the assay plate. Centrifuged the assay plates at 1000 g for 1 min and then incubated at room temperature for lhr protected from light. Finally, the plate was read at wavelengths of 520 nm and 495 nm on Envision 2104 plate reader (PerkinElmer).
A ratio (Ratio520 nm/495 nm−Ratiobackground) was calculated for each well. The activity ratio was calculated as follow: […]
Ratiopositive: The average ratio for the positive control across the plate.
Ratiovehicle: The average ratio for negative controls across the plate.
EC50 was calculated by fitting % Activity values and log of compound concentrations to nonlinear regression (dose response-variable slope) with GraphPad 5.0.
X: log of compound concentration.

SMILES | Emax [%] | EC50 [nM] | Pct Effect (Emax %) [%]
Cn1cc(C(=O)O)c2ccc(N3CCN(CCc4c(-c5ccccc5Cl)noc4C4CC4)CC3)cc21 [Example I9, 6-(4-(2-(3-(2-chlorophenyl)-5-cyclopropylisoxazol-4-yl)ethyl)piperazin-1-yl)-1-methyl-1H-indole-3-carboxylic Acid] | 206 | 1220 | 
Cn1cc(C(=O)O)c2ccc(N3CCN(CCc4c(-c5c(F)cccc5F)noc4C4CC4)CC3)cc21 [Example I11, 6-(4-(2-(5-cyclopropyl-3-(2,6-difluorophenyl)isoxazol-4-yl)ethyl)piperazin-1-yl)-1-methyl-1H-indole-3-carboxylic Acid] |  | 1640 | 
CC1CN(CCc2c(-c3c(Cl)cccc3Cl)noc2C2CC2)CCN1c1ccc(CC(=O)O)cc1 (centres unmarked) [Example I13, 2-(4-(4-(2-(5-cyclopropyl-3-(2,6-dichlorophenyl)isoxazol-4-yl)ethyl)-2-methylpiperazin-1-yl)phenyl)acetic Acid] | 34.9 | 1530 | 
Cn1cc(C(=O)O)c2ccc(N3CCN(CCc4c(-c5ccc(Cl)cc5Cl)noc4C4CC4)CC3)cc21 [Example I16, 6-(4-(2-(5-cyclopropyl-3-(2,4-dichlorophenyl)isoxazol-4-yl)ethyl)piperazin-1-yl)-1-methyl-1H-indole-3-carboxylic Acid] |  | > 10000 | 
Cn1cc(C(=O)O)c2ccc(N3CCN(CCc4c(-c5ccccc5F)noc4C4CC4)CC3)cc21 [Example I19, 6-(4-(2-(5-cyclopropyl-3-(2-fluorophenyl)isoxazol-4-yl)ethyl)piperazin-1-yl)-1-methyl-1H-indole-3-carboxylic Acid] | 104 | 4360 | 
CC(Cc1c(-c2c(Cl)cccc2Cl)noc1C1CC1)N1CCN(c2ccc3c(C(=O)O)cn(C)c3c2)CC1 (centres unmarked) [Example I23, 6-(4-(1-(5-cyclopropyl-3-(2,6-dichlorophenyl)isoxazol-4-yl)propan-2-yl)piperazin-1-yl)-1-methyl-1H-indole-3-carboxylic Acid] | 35.7 | 1370 | 
Cn1cc(C(=O)O)c2ccc(N3C[C@H]4C[C@@H]3CN4CCc3c(-c4c(Cl)cccc4Cl)noc3C3CC3)cc21 [Example I28, 6-((1R,4R)-5-(2-(5-cyclopropyl-3-(2,6-dichlorophenyl)isoxazol-4-yl)ethyl)-2,5-diazabicyclo[2.2.1]heptan-2-yl)-1-methyl-1H-indole-3-carboxylic Acid] | 132 | 1340 | 
Cn1cc(C(=O)O)c2ccc(N3CC4CC3CN4CCc3c(-c4c(Cl)cccc4Cl)noc3C3CC3)cc21 (centres unmarked) [Example I29, 6-(5-(2-(5-cyclopropyl-3-(2,6-dichlorophenyl)isoxazol-4-yl)ethyl)-2,5-diazabicyclo[2.2.1]heptan-2-yl)-1-methyl-1H-indole-3-carboxylic Acid] |  | 3810 | 68.08
O=C(O)c1cc(F)c2nc(N3C4CCC3CN(CCc3c(-c5c(Cl)cccc5Cl)noc3C3CC3)C4)sc2c1 [Example I31, 2-(3-(2-(5-cyclopropyl-3-(2,6-dichlorophenyl)isoxazol-4-yl)ethyl)-3,8-diazabicyclo[3.2.1]octan-8-yl)-4-fluorobenzo[d]thiazole-6-carboxylic Acid] | 45.1 | 41 | 
O=C(O)c1cc(F)c2nc(N3C4CCC3CN(CCc3c(-c5ccccc5OC(F)(F)F)noc3C3CC3)C4)sc2c1 [Example I32, 2-(3-(2-(5-cyclopropyl-3-(2-(trifluoromethoxy)phenyl)isoxazol-4-yl)ethyl)-3,8-diazabicyclo[3.2.1]octan-8-yl)-4-fluorobenzo[d]thiazole-6-carboxylic Acid] | 47.7 | 129 | 
O=C(O)c1ccc2nc(N3C4CCC3CN(CCc3c(-c5c(Cl)cccc5Cl)noc3C3CC3)C4)sc2c1 [Example I33, 2-(3-(2-(5-cyclopropyl-3-(2,6-dichlorophenyl)isoxazol-4-yl)ethyl)-3,8-diazabicyclo[3.2.1]octan-8-yl)benzo[d]thiazole-6-carboxylic Acid] | 43.3 | 97 | 
O=C(O)c1ccc2nc(N3C4CCC3CN(CCc3c(-c5ccccc5OC(F)(F)F)noc3C3CC3)C4)sc2c1 [Example I34, 2-(3-(2-(5-cyclopropyl-3-(2-(trifluoromethoxy)phenyl)isoxazol-4-yl)ethyl)-3,8-diazabicyclo[3.2.1]octan-8-yl)benzo[d]thiazole-6-carboxylic Acid] | 41.5 | 236 | 
C[C@H]1CN(CCc2c(-c3c(Cl)cccc3Cl)noc2C2CC2)CCN1c1ccc2c(C(=O)O)cn(C)c2c1 [Example I39, (S)-6-(4-(2-(5-cyclopropyl-3-(2,6-dichlorophenyl)isoxazol-4-yl)ethyl)-2-methylpiperazin-1-yl)-1-methyl-1H-indole-3-carboxylic Acid] | 129 | 150 | 
Cn1cc(C(=O)O)c2ccc(N3CC4CCC(C3)N4CCc3c(-c4c(Cl)cccc4Cl)noc3C3CC3)cc21 [Example I41, 6-(8-(2-(5-cyclopropyl-3-(2,6-dichlorophenyl)isoxazol-4-yl)ethyl)-3,8-diazabicyclo[3.2.1]octan-3-yl)-1-methyl-1H-indole-3-carboxylic Acid] | 158 | 200 | 
C[C@@H]1CN(CCc2c(-c3c(Cl)cccc3Cl)noc2C2CC2)C[C@H](C)N1c1ccc2c(C(=O)O)cn(C)c2c1 [Example I43, 6-((2S,6R)-4-(2-(5-cyclopropyl-3-(2,6-dichlorophenyl)isoxazol-4-yl)ethyl)-2,6-dimethylpiperazin-1-yl)-1-methyl-1H-indole-3-carboxylic Acid] | 110 | 1400 | 
C[C@@H]1CN(CCc2c(-c3c(Cl)cccc3Cl)noc2C2CC2)C[C@@H](C)N1c1ccc2c(C(=O)O)cn(C)c2c1 [Example I44, 6-((2R,6R)-4-(2-(5-cyclopropyl-3-(2,6-dichlorophenyl)isoxazol-4-yl)ethyl)-2,6-dimethylpiperazin-1-yl)-1-methyl-1H-indole-3-carboxylic Acid] | 73.5 | 401 | 
Cn1cc(C(=O)O)c2c(F)cc(N3CCN(CCc4c(-c5c(Cl)cccc5Cl)noc4C4CC4)CC3)cc21 [Example I46, 6-(4-(2-(5-cyclopropyl-3-(2,6-dichlorophenyl)isoxazol-4-yl)ethyl)piperazin-1-yl)-4-fluoro-1-methyl-1H-indole-3-carboxylic Acid] | 168 | 149 | 
Cn1cc(C(=O)O)c2ccc(N3CC4CC3CN4CCc3c(-c4c(Cl)cccc4Cl)noc3C3CC3)cc21 (centres unmarked) [Example I48, 6-(5-(2-(5-cyclopropyl-3-(2,6-dichlorophenyl)isoxazol-4-yl)ethyl)-2,5-diazabicyclo[2.2.1]heptan-2-yl)-1-methyl-1H-indole-3-carboxylic Acid] |  | 1720 | 124.90
Cn1cc(C(=O)O)c2ccc(N3CC4CC(C3)N4CCc3c(-c4c(Cl)cccc4Cl)noc3C3CC3)cc21 [Example I49, 6-(6-(2-(5-cyclopropyl-3-(2,6-dichlorophenyl)isoxazol-4-yl)ethyl)-3,6-diazabicyclo[3.1.1]heptan-3-yl)-1-methyl-1H-indole-3-carboxylic Acid] |  | > 10000 | 
CC1CN(CCc2c(-c3c(Cl)cccc3Cl)noc2C2CC2)CCN1c1ccc2nc(C(=O)O)ccc2c1 (centres unmarked) [Example I51, 6-(4-(2-(5-cyclopropyl-3-(2,6-dichlorophenyl)isoxazol-4-yl)ethyl)-2-methylpiperazin-1-yl)quinoline-2-carboxylic Acid] | 96.5 | 74 | 
CC1CN(c2ccc3nc(C(=O)O)ccc3c2)CCN1CCc1c(-c2c(Cl)cccc2Cl)noc1C1CC1 (centres unmarked) [Example I52, 6-(4-(2-(5-cyclopropyl-3-(2,6-dichlorophenyl)isoxazol-4-yl)ethyl)-3-methylpiperazin-1-yl)quinoline-2-carboxylic Acid] | 121 | 209 | 
COC(=O)c1ccc2cc(N3CCN(CCc4c(-c5c(Cl)cccc5Cl)noc4C4CC4)C(C)C3)ccc2n1 (centres unmarked) [Example I53, methyl 6-(4-(2-(5-cyclopropyl-3-(2,6-dichlorophenyl)isoxazol-4-yl)ethyl)-3-methylpiperazin-1-yl)quinoline-2-carboxylate] | 68.4 | 436 | 
